{"source": "patent US20240123022A1", "about": "“A STABLE ANTI-ANGIOGENIC AND ANTI-INFLAMMATORY PHARMACEUTICAL FORMULATION AND PHARMACEUTICAL COMBINATION FOR TREATMENT AND PREVENTION OF PSORIASIS” (priority 2021, published 2024)", "key": {"HaCaT cells": {"system": "HaCaT cells", "assay": "TUNEL assay", "assay_type": "cell-based, human", "settings": "48 h", "description": "Terminal deoxynucleotidyl transferase (TdT) dUTP Nick-End Labeling (TUNEL) assay has been designed to detect apoptotic cells that undergo extensive DNA degradation during the late stages of apoptosis. […] Cells were treated with test item (IS217 of 100 μg/ml-5000 μg/ml) and positive controls like curcumin (10 μM and 20 μM), anthralin (1 μM) and betullininc acid (10 μg/ml, 20 μg/ml, 50 μg/ml). After about 48 hours of treatment, cells were analysed for the apoptotic effect via TUNEL assay. Absorbance was measured using ELISA reader (Table 1)."}, "IL-17 secretion": {"system": "IL-17 secretion", "assay": "IL-17 inhibition in ConA stimulated splenocytes (ELISA)", "assay_type": "cell-based, C57BL/6 mice", "settings": "Mus musculus, Splenocyte, read-out: inhibition of IL-17 w.r.t. control (ConA) levels", "description": "The study was conducted to assess anti-inflammatory potential of test item IS217 in murine splenocytes isolated from C57BL/6 mice for assessing percentage inhibition of IL-17 in splenocytes by using ELISA method. […] Curcumin was taken as positive control for in-house validation.\nFor determining inhibitory activity against IL-17 secretion level, splenocytes cells were treated with the concentration range of 10 to 5000 μg/ml along with Con A stimulation (5 μg/ml), Con A alone treated cells were used as a positive control. After incubating for about 24 hours, IL-17 levels were estimated by ELISA corresponding to non-cytotoxic concentrations at 10 to 2000 μg/ml and absorbance of samples was determined by using ELISA reader."}, "IL-23 secretion": {"system": "IL-23 secretion", "assay": "Inhibition of IL-23 secretion in monocytes THP-1 (LPS and IFN-γ, ELISA)", "assay_type": "cell-based, human", "description": "The study was conducted to assess anti-inflammatory potential of test item, IS217 in human monocytic cell line (THP-1) by assessing percentage inhibition of IL-23 in monocytes by using ELISA method.\nCurcumin was taken as positive control for in-house validation. For determining inhibitory activity against IL-23 secretion, human monocytic cell line (THP-1) was treated with concentration range of 10-5000 μg/ml with LPS (1 μg/ml) and IFN-γ. LPS (1 μg/ml) and IFN-γ (100 ng/ml) alone were taken as a positive control. After about 24 hours of incubation, IL-23 levels were estimated by ELISA in supernatants corresponding to non-cytotoxic concentrations at 10 to 5000 μg/ml and absorbance of samples was determined by using ELISA reader."}, "VEGF secretion [1]": {"system": "VEGF secretion", "assay": "cells", "settings": "Homo sapiens, HaCaT, read-out: inhibition of VEGF"}, "[2]": {"system": "TPA induced ear inflammation model in C57BL/6 mice", "assay": "IS217 alone and in combination with methotrexate and betamethasone in TPA induced ear inflammation model", "assay_type": "in vivo", "description": "The experimental procedure, doses and route of administration were same as IMQ model. Test item IS217 was administered subcutaneously either alone or in combination with standard methotrexate (MTX) and betamethasone (BD) to diseased animals."}, "[3]": {"system": "human keratinocytes (HaCaT) cells", "assay": "Cytotoxicity of methotrexate in combination with IS217, combination index method (MTT)", "assay_type": "cell-based", "settings": "methotrexate alone 0.01-5 μM, 72 h", "description": "Assessment of cytotoxicity of methotrexate in combination with IS217 on proliferation of human keratinocytes (HaCaT) cells was performed by using combination index method. HaCaT cell line is maintained by using DMEM, 10% FBS, CO2 incubator and after overnight incubation cells were replenished by using about 1% FBS and then the cells were treated with different concentrations (0.01, 0.1, 0.25, 0.5, 1, 5 μM) of methotrexate alone, IS217 (10, 50, 500, 1000, 2000, 5000 μg/ml) alone, combination of methotrexate (0.01, 0.1, 0.25, 0.5, 1, 5 μM) and IS217 (10, 50, 500, 1000, 2000, 5000 μg/ml) to achieve different combinations.\nIS217 was added to the above combinations every 24 hours (i.e., three doses) whereas methotrexate was added only once in 72 hours during the 72 hours of incubation. Then the plates were subjected for MTT assay and percentage inhibition (cytotoxicity) corresponding to each treatment was calculated."}, "VEGF secretion [4]": {"system": "VEGF secretion", "assay": "Inhibition of VEGF secretion in HUVEC cells", "assay_type": "cell-based, human", "settings": "1 mg/ml", "description": "The study was conducted to evaluate anti-angiogenic effect of IS217 in HUVEC cells. […] Bevacizumab (1 mg/mL) was taken as positive control for validation purpose."}, "HUVEC cells": {"system": "HUVEC cells", "assay": "Tube formation assay in HUVEC cells (VEGF induced)", "assay_type": "cell-based, human", "set-up": "Tube formation assay results, Avg: scale not given here", "description": "HUVEC cells were used as test system to determine angiogenic effect of IS217 by assessing the inhibitory effects of test item on endothelial cells tube formation. Prior to the tube formation assay, test item of concentration ranging 0.01 μg/ml to 1000 μg/ml were used to treat endothelial cells for its cytotoxicity effect to assess suitable concentration for tube formation assay. […] The cells corresponding to positive control group were treated with bevacizumab of concentration 1000 μg/ml. The degree of angiogenesis progression was assessed based on visual pattern recognition of photomicrographs of HUVEC cells."}}, "data": [{"molecule": "O=C1c2c(O)cccc2Cc2cccc(O)c21", "note": "[Anthralin, reference compound]", "values": [{"measurement": "% increase in TUNEL-Positive cell population w.r.t. control (untreated cells)", "setting": "HaCaT cells; 1 μM", "value": "−87.0", "unit": "%"}]}, {"molecule": "C=C(C)[C@@H]1CC[C@]2(C(=O)O)CC[C@]3(C)[C@H](CC[C@@H]4[C@@]5(C)CC[C@H](O)C(C)(C)[C@@H]5CC[C@]43C)[C@@H]12", "note": "[BA, betullininc acid, reference compound]", "values": [{"measurement": "% increase in TUNEL-Positive cell population w.r.t. control (untreated cells)", "setting": "HaCaT cells; 10 μg/ml", "value": 21.3, "unit": "%"}, {"measurement": "% increase in TUNEL-Positive cell population w.r.t. control (untreated cells)", "setting": "HaCaT cells; 20 μg/ml", "value": 48.2, "unit": "%"}, {"measurement": "% increase in TUNEL-Positive cell population w.r.t. control (untreated cells)", "setting": "HaCaT cells; 50 μg/ml", "value": 61.6, "unit": "%"}]}, {"molecule": "COc1cc(/C=C/C(=O)CC(=O)/C=C/c2ccc(O)c(OC)c2)ccc1O", "note": "[Curcumin]", "values": [{"measurement": "inhibition at 1 µM", "setting": "IL-17 secretion; curcumin 1 μM", "value": 40.5, "unit": "%"}, {"measurement": "inhibition at 10 µM", "setting": "IL-17 secretion; curcumin 10 μM", "value": 42.5, "unit": "%"}, {"measurement": "% increase in TUNEL-Positive cell population w.r.t. control (untreated cells)", "setting": "HaCaT cells; 10 μM", "value": "−72.2", "unit": "%"}, {"measurement": "% increase in TUNEL-Positive cell population w.r.t. control (untreated cells)", "setting": "HaCaT cells; 20 μM", "value": "−76.1", "unit": "%"}, {"measurement": "inhibition at 10 µM", "setting": "IL-23 secretion; Homo sapiens, THP-1, curcumin 10 μM, read-out: inhibition of IL-23 w.r.t. control LPS and IFN-γ levels", "value": 91.6, "unit": "%"}, {"measurement": "inhibition of IL-23 w.r.t. control LPS and IFN-γ levels", "setting": "IL-23 secretion; curcumin, second concentration not given", "value": 90.6, "unit": "%"}, {"measurement": "inhibition at 1 µM", "setting": "VEGF secretion [1]", "value": 22.8, "unit": "%"}]}, {"molecule": "CN(Cc1cnc2nc(N)nc(N)c2n1)c1ccc(C(=O)N[C@@H](CCC(=O)O)C(=O)O)cc1", "note": "[methotrexate, reference compound]", "values": [{"measurement": "inhibitory activity against TPA induced increase in ear thickness", "setting": "[2]; MTX 0.75 mg/kg", "value": 24.95, "unit": "%"}, {"measurement": "inhibitory activity against TPA induced increase in ear thickness", "setting": "[2]; MTX 1.5 mg/kg", "value": 46.06, "unit": "%"}, {"measurement": "50% inhibition of cell proliferation (IC50)", "setting": "[3]", "value": "not achieved"}]}, {"molecule": "CC1=C(/C=C/C(C)=C/C=C/C(C)=C/C(=O)O)C(C)(C)CCC1", "note": "[retinoic acid]", "values": [{"measurement": "inhibition at 1 µM", "setting": "VEGF secretion [1]", "value": 22.8, "unit": "%"}]}, {"molecule": "Bevacizumab: positive control, commercial formulation Avastin®, anti-VEGF", "values": [{"measurement": "inhibition of VEGF", "setting": "VEGF secretion [4]", "value": 94.51, "unit": "%"}, {"measurement": "Tube formation assay results, Avg", "setting": "HUVEC cells; Bevacizumab + VEGF", "value": 0.44}, {"measurement": "Tube formation assay results, Avg", "setting": "HUVEC cells; Bevacizumab, without VEGF", "value": 0.33}, {"measurement": "inhibition of tube formation as compared to VEGF stimulation control", "setting": "HUVEC cells; HUVEC, bevacizumab 1000 μg/ml", "value": 91.1, "unit": "%"}]}]}
